What all share (assay): inhibition of tumour cell growth, NCI panel, 48 h
For assay [1], the system named is SNB-19 CNS.
Assay [2] deals with MCF7 breast.
In assay [3] the test system is NCI/ADR-RES ovarian.
Assay [4] concerns SK-MEL-2 melanoma.
Assay [5] relates to NCI-H226 lung.
The test system of assay [6] is MOLT-4 leukemia.
Assay [7] relates to NCI-H23 lung.
Assay [8] relates to KM12 colon.
Assay [9] deals with A549 NSCLC.
Assay [10] has as its system LOX IMVI melanoma.
Assay [11] relates to HOP-92 NSCLC.
Assay [12] concerns MDA-MB-435.

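Assay format: 96-well plates, 48-hour exposure. TGI: total growth inhibition.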

In the case of `CCN(CC)P1(=S)Oc2ccc3ccccc3c2-c2c(ccc3ccccc23)O1`, the TGI in assay [1], in assay [2], in assay [3], in assay [4], in [5] and in assay [6] was > 100 µM throughout. In addition, the TGI in assay [7], in [8], in assay [9], in assay [10], in [11] and in assay [12] was > 100 µM throughout.

In the case of `COc1ccc(OC)c2c1C[C@@H]1C(C#N)N3[C@H](Cc4c(OC)ccc(OC)c4[C@@H]3C)C(=O)N1[C@H]2C` (some centres not stated), the TGI in assay [1] was 4.96 µM; in assay [2] it was 17.5 µM; in assay [3] it was > 100 µM; in assay [4] it was 5.2 µM; in assay [5] it was 40.9 µM; in [6], 15.9 µM. For the same compound, the TGI in assay [7] is 19.6 µM; in assay [8], 8.21 µM; in assay [9] it was > 54.3 µM; in assay [10], 5.95 µM; in assay [11], 5.37 µM; in assay [12], 14 µM.

Consider `Brc1ccc(-c2ccc(-c3ccc(Br)s3)s2)s1`, for which the TGI in [1], in assay [2], in [3], in assay [4], in assay [5] and in assay [6] was > 100 µM in each case. In addition, the TGI in [7], in assay [8], in [9], in [10], in assay [11] and in [12] was > 100 µM each time.

Take `C[N+](C)(C)CCCCCc1c2nc(c(CCCCC[N+](C)(C)C)c3ccc([nH]3)c(CCCCC[N+](C)(C)C)c3ccc([nH]3)c(CCCCC[N+](C)(C)C)c3nc1C=C3)C=C2`: the TGI in assay [1], in assay [2], in [3], in [4], in assay [5] and in assay [6] was > 100 µM each time. For the same compound, the TGI in [7], in assay [8], in [9], in assay [10], in [11] and in [12] was > 100 µM in each case.

Regarding `CCCCc1cc2c(cc1O)CCC1C2CC[C@@]2(C)C1CC[C@@H]2O` (some centres not stated), the TGI was > 100 µM in assay [1]; 30.4 µM in assay [2]; 38.5 µM in assay [3]; 38.1 µM in [4]; 40.6 µM in assay [5]; 28.2 µM in assay [6]. Further, the TGI in assay [7] came to 41.3 µM; in assay [8], 32.4 µM; in assay [9] it was 29.3 µM; in assay [10], 39.3 µM; in assay [11] it was 39.3 µM; in assay [12], 36.5 µM.

For the compound `COc1cccc(-n2nnc3c(N)nc(N)nc32)c1`, the TGI in assay [1], in assay [2], in assay [3], in assay [4], in [5] and in [6] was > 100 µM throughout. Moreover, the TGI in [7] is 76.3 µM; in assay [8] it was > 100 µM; in assay [9], > 100 µM; in assay [10], > 100 µM; in [11] it was > 100 µM; in assay [12] it was > 100 µM.

`CCOC(=O)c1ccc(N=C/C=C(\Nc2ccc(C(=O)OCC)cc2)c2ccc3ccccc3c2)cc1`: the TGI in assay [1] is > 100 µM; in [2] it was 67 µM; in assay [3], 70.3 µM; in assay [4], 66.9 µM; in assay [5], 96.9 µM; in [6], 16.1 µM. The TGI in assay [7] was 54 µM; in assay [8], 48.2 µM; in assay [9], > 100 µM; in [10] it was 34.4 µM; in [11], > 100 µM; in assay [12] it was 33.3 µM.

As for `CCCCCCc1cc(C=O)sc1-c1ccc(-c2sc(-c3ccc(-c4ccc(-c5cc(CCCCCC)c(-c6ccc(-c7sc(C=O)cc7CCCCCC)s6)s5)s4)s3)cc2CCCCCC)s1`, the TGI in assay [1], in assay [2], in assay [3], in assay [4], in assay [5] and in assay [6] was > 100 µM each time. Moreover, the TGI in assay [7], in assay [8], in assay [9], in assay [10], in assay [11] and in assay [12] was > 100 µM each time.

For the compound `COC(=O)c1ccc(/C=C/C2=CC(=O)C=CC2=O)cc1`, the TGI was > 43 µM in [1]; 27.8 µM in assay [2]; 97.9 µM in [3]; > 62.1 µM in assay [4]; 40.2 µM in [5]; 7.11 µM in [6]. In addition, the TGI in assay [7] is 42.4 µM; in assay [8], 31.6 µM; in [9] it was > 100 µM; in [10] it was 23.2 µM; in assay [11], 32.7 µM; in assay [12] it was 44 µM.

Turning to `COc1ccc2c(c1)CCC(CN1CCN(CCOC(c3ccc(F)cc3)c3ccc(F)cc3)CC1)=C2`, the TGI in assay [1] was > 100 µM; in assay [2], 71.9 µM; in assay [3], 38.4 µM; in assay [4] it was 33.3 µM; in assay [5] it was 30.6 µM; in assay [6], 48.7 µM. Moreover, the TGI in [7] was 38.2 µM; in assay [8] it was > 100 µM; in assay [9] it was > 100 µM; in assay [10] it was 30.3 µM; in [11] it was 42 µM; in assay [12] it was 68.9 µM.

Consider `CC(C)(C)c1cc(C2COC(=O)COCCOCC(=O)OCCOCCO2)cc(C(C)(C)C)c1O` (configuration not stated), for which the TGI in assay [1], in [2], in [3], in [4], in assay [5] and in assay [6] was > 100 µM throughout. For the same compound, the TGI is 99.1 µM in [7]; > 100 µM in assay [8]; > 100 µM in assay [9]; > 31.6 µM in [10]; 59.4 µM in assay [11]; > 100 µM in [12].

For the origin of these results see PubChem BioAssay (NCI).
